Results from article PMC2832585 (Bioorganic & medicinal chemistry, 2009).
Where two headings read alike, the source gives them in different places.

Assays:
human β2-AR = human β2-AR (Homo sapiens, UniProt P07550); experiment: β2-AR binding, [3H]CGP-12177 displacement on HEK cell membranes; settings: relative to (R,R)-1 or (R,S)-1
[1] = test system: single ventricular myocytes; settings: read-out: EC50(cardio); previous data; ref [10]; cited from earlier work
β1-AR = β1-AR (Rattus norvegicus, UniProt P18090); experiment: β1-AR binding, [3H]CGP-12177 displacement on rat cortical membranes
Sequence of β1-AR (P18090 whole entry): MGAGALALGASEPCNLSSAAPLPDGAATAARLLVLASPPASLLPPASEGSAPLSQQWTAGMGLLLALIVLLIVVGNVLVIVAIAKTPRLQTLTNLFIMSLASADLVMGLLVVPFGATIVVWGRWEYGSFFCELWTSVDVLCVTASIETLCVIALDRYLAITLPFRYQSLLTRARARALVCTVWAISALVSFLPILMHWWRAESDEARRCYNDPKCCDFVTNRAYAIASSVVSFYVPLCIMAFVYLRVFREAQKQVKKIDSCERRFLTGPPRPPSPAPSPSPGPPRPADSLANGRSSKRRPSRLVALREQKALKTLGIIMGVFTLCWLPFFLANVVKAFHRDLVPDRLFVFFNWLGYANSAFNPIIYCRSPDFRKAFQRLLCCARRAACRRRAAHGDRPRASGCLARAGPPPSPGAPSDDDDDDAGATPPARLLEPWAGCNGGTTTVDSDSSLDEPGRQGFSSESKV

[2] = test system: single ventricular myocytes; experiment: Cardiomyocyte contractility model; type: cell-based, rat

Sequence of human β2-AR (P07550 whole entry): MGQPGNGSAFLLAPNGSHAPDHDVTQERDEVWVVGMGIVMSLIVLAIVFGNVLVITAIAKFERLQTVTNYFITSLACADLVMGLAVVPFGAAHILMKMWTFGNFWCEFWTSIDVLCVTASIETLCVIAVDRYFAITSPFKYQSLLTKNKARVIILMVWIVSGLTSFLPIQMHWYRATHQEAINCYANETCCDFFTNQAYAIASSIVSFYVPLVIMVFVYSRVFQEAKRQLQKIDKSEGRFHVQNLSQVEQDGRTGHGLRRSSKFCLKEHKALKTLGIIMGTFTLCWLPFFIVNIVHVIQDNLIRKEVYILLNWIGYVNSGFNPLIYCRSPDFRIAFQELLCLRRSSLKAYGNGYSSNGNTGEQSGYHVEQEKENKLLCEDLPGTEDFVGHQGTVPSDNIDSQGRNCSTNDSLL

For CC[C@@H](Cc1ccc(O)cc1)NC[C@H](O)c1cc(O)cc(O)c1 (racemic) [(R,S)-52], which “Ki(β2-AR) fold greater than corresponding isomer of 1” value (human β2-AR) is on record?
The value was 1.5 fold.

Which EC50 [1] does the source give for C[C@H](Cc1ccc(O)cc1)NC[C@@H](O)c1cc(O)cc(O)c1 [(S,R)-1] here?
The EC50 was 2.34 µM.

Which EC50 [1] does the source give for COc1ccc(C[C@@H](C)NC[C@@H](O)c2cc(O)cc(O)c2)cc1 [(S,R)-2] here?
Its EC50 is 3.16 µM.

Which “Ki(β2-AR) fold greater than corresponding isomer of 1” value (human β2-AR) does the source give for CC[C@H](Cc1ccc(O)cc1)NC[C@H](O)c1cc(O)cc(O)c1 [(R,R)-52, (R,R-(−)-5-(1-Hydroxy-2-(1-hydroxyphenyl)butan-2-ylamino)ethyl) benzene-1,3-diol] here?
Its value is ~ 4 fold.

What about the “Ki(β1-AR) of (R,R)-isomer fold larger than (R,S)-isomer” value (β1-AR) of the same molecule?
The value was 4 fold.

What about the “Ki(β1-AR) fold higher than corresponding isomer of 1” value (β1-AR; relative to (R,R)-1 or (R,S)-1) of the same molecule?
The value was 28 fold.

And the “antagonism of the activity of zinterol” value ([2]; cardiomyocyte contractility model, data not shown)?
The value was “did not antagonize”.

And the “sensitivity of cardiomyocyte contractility activity to pertussis toxin” value ([2]; initial data, data not shown, indicates activation of both GS and Gi proteins)?
Its value is “sensitive to pertussis toxin”.

For C[C@H](Cc1ccc(O)cc1)NC[C@H](O)c1cc(O)cc(O)c1 [(R,R)-1, (R,R)-fenoterol], which EC50 ([2]; read-out: EC50cardio, cardiomyocyte contractility) is on record?
Its EC50 is 0.073 ± 0.018 µM.
